The values that follow come from article PMC4756048 (Clinical Pharmacokinetics, 2015).

Read-outs that look alike come from different tables or passages of the source.

The test system of one data set is CYP1A2. The following applies: caffeine; cited from earlier work.
The subject of another data set is CYP3A (intestinal). The following applies: cited from earlier work.
Data set [1] concerns CYP3A. The following applies: in vitro; cited from earlier work.
For the next data set, the system named is CYP2C19. The following applies: in vitro; cited from earlier work.
For data set [2] the following is noted: cited from earlier work.
The test system of data set [3] is OATP1B3. The following applies: in vitro; cited from earlier work.
A further data set deals with CYP2A6. The following applies: in vitro; cited from earlier work.
Data set [4] relates to OATP1B1. The following applies: in vitro; cited from earlier work.
Data set [5] has as its target T1, sodium taurocholate cotransporting polypeptide (NTCP) (Homo sapiens, UniProt Q14973).
T1 sequence (Q14973 1-349): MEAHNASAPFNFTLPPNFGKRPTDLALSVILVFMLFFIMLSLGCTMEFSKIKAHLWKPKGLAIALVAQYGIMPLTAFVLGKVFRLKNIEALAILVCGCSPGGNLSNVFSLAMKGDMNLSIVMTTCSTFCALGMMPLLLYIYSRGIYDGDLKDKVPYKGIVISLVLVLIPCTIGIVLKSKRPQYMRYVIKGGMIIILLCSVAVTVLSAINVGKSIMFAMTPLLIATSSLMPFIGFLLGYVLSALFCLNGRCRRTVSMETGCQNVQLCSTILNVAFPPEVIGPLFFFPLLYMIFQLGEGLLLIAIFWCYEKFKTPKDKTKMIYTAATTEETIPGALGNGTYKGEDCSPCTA
Description: In vitro transporter inhibition. Format: in vitro ADME. The following applies: data on file.

Data set [6] is classed as in vivo, human. The following applies: data on file.
For a further data set, the system named is CYP2C8. The following applies: in vitro; cited from earlier work.
Data set [7] deals with breast cancer resistance protein (BCRP). The following applies: in vitro; data on file; cited from earlier work.
The subject of data set [8] is OATP1B3. The following applies: in vitro; data on file; cited from earlier work.
The test system of the next data set is CYP2D6. The following applies: in vitro; cited from earlier work.
The test system of data set [9] is OATP1B1. The following applies: in vitro; cited from earlier work. The source holds these as a separate data set.
The test system of data set [10] is P-gp. The following applies: in vitro; cited from earlier work.
Data set [11] deals with P-gp. The following applies: in vitro; data on file; cited from earlier work.
The target of the next data set is T2, cathepsin A (Homo sapiens, UniProt P10619).
T2 sequence (P10619 29-480): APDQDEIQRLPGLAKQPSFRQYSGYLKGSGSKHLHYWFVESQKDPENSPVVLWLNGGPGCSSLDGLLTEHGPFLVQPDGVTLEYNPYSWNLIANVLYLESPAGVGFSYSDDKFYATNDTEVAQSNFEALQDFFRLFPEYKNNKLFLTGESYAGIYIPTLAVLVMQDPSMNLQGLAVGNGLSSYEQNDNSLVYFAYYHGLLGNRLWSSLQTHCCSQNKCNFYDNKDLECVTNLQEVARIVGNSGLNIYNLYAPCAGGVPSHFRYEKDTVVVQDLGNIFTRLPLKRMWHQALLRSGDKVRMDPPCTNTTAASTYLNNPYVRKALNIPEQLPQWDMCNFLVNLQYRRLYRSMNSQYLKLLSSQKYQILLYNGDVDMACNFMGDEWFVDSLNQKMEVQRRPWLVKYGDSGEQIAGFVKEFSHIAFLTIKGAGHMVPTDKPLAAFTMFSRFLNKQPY
Briefly: In vitro cathepsin A inhibition. It is filed as biochemical. The following applies: data on file.

Data set [12] deals with MRP2. The following applies: in vitro; cited from earlier work.
Data set [13] concerns bile salt export pump (BSEP). The following applies: in vitro; cited from earlier work.
For another data set, the system named is plasma proteins. The following applies: largely to albumin; cited from earlier work.
The test system of data set [14] is CYP3A. The following applies: in vitro; cited from earlier work. This is another data set of the same source.
The conditions of data set [15]: cited from earlier work. The source holds these as a separate data set.
A further data set relates to BCRP. The following applies: in vitro; cited from earlier work.
Data set [16] concerns MRP2. The following applies: in vitro; data on file; cited from earlier work.
Data set [17] relates to CatA and carboxylesterase (CES) 1. The following applies: cited from earlier work.
The mark [18] stands for this setting: oral midazolam 0.075 mg/kg, simeprevir 150 mg, fed, 16 healthy subjects, least squares mean ratio (90 % CI).
Where [19] appears, read: simeprevir 150 mg once daily + erythromycin 500 mg three times daily, days 1–7, fed, 24 healthy subjects.
Setting [20] is: simeprevir 200 mg once daily + ritonavir 100 mg twice daily, fed, 12 healthy male subjects.
Where [21] appears, read: interim analysis, simeprevir 150 mg once daily.
Setting [22] is: interim analysis, simeprevir 150 mg once daily, vs historical data on simeprevir alone.
Where [23] appears, read: vs subjects with normal renal function.

Consider `Cn1c(=O)c2c(ncn2C)n(C)c1=O` [Caffeine, caffeine], for which, in the data set on CYP1A2, the “increase in exposure with coadministration of simeprevir” value is given as 12%.
As for `Cc1ncc2n1-c1ccc(Cl)cc1C(c1ccccc1F)=NC2` [Midazolam, midazolam], in the data set on CYP3A (intestinal) (setting [18]), the “AUClast ratio of probe with vs without simeprevir” value is 1.45 (1.35–1.57) and the “Cmax ratio of probe with vs without simeprevir” value is 1.31 (1.19–1.45). For the same compound, in the data set on CYP3A (intestinal) (oral midazolam), the “increase in exposure with coadministration of simeprevir” value is 31%.
Take `COc1ccc2c(O[C@@H]3C[C@H]4C(=O)N[C@]5(C(=O)NS(=O)(=O)C6CC6)C[C@H]5/C=C\CCCCN(C)C(=O)[C@@H]4C3)cc(-c3nc(C(C)C)cs3)nc2c1C` [simeprevir]: the “inhibition of CYP3A” value with CYP3A [1] is on record as “weak inhibitor”. Besides, the “inhibition of CYP2C19” value with CYP2C19 is on record as “weak inhibitor”. In data set [2] (setting [19]), the “fold increase in mean AUC24h of simeprevir with erythromycin” value was 7.47 fold, the “fold increase in mean Cmax of simeprevir with erythromycin” value is given as 4.53 fold and the “fold increase in mean Cmin of simeprevir with erythromycin” value is 12.74 fold. Also, in [2] (setting [20]), the “fold increase in AUC24h of simeprevir with ritonavir, multiple doses” value was 7.18 fold; the “fold increase in Cmax of simeprevir with ritonavir, multiple doses” value is on record as 4.70 fold; the “fold increase in Cmin of simeprevir with ritonavir, multiple doses” value is 14.35 fold. The “hepatic uptake by OATP1B3” value with OATP1B3 [3] is listed as “mediate hepatic uptake”. For the same compound, the “inhibition of CYP2A6” value in the data set with CYP2A6 is “moderate inhibitor”. The “inhibition of OATP1B1” value in the data set on OATP1B1 [4] is “inhibitor”. The “inhibition of NTCP” value in data set [5] is “inhibitor”. Also, in [6], the “AUC24h of simeprevir, historical data in the absence of cyclosporine” value is on record as 45,202 ng·h/mL and the “Cmax of simeprevir, historical data in the absence of cyclosporine” value is 3235 ng/mL. The “AUC24h of simeprevir in subjects receiving cyclosporine” value in data set [6] (day 14, simeprevir 150 mg once daily) is recorded as 262,618 ng·h/mL. Besides, in data set [6] (day 14, simeprevir 150 mg once daily, n = 9), the “Cmax of simeprevir in subjects receiving cyclosporine” value is listed as 15,321 ng/mL. For the same compound, in data set [6] (setting [21]), the “AUC24h of simeprevir in subjects receiving tacrolimus” value is listed as 83,808 ng·h/mL and the “Cmax of simeprevir in subjects receiving tacrolimus” value is reported as 5780 ng/mL. Further, in data set [6] (setting [22]), the “increase in AUC24h of simeprevir with tacrolimus” value is 85% and the “increase in Cmax of simeprevir with tacrolimus” value is given as 79%. For the same compound, the “inhibition of CYP2C8” value in the data set with CYP2C8 was “moderate inhibitor”. Further, in data set [7], the “substrate of BCRP” value is reported as “substrate”. The “inhibition of OATP1B3” value in the data set on OATP1B3 [8] was “inhibitor”. The “inhibition of CYP2D6” value in the data set with CYP2D6 is recorded as “moderate inhibitor”. The “hepatic uptake by OATP1B1” value in the data set on OATP1B1 [9] is reported as “mediate hepatic uptake”. Further, the “inhibition of P-gp” value in the data set on P-gp [10] is recorded as “inhibitor”. Besides, the “substrate of P-gp” value with P-gp [11] was “substrate”. In addition, at cathepsin A, the “inhibition of cathepsin A” value is “no clinically relevant inhibition”. In the data set with MRP2 [12], the “inhibition of MRP2” value is “inhibitor”. Further, the “inhibition of BSEP” value in [13] is recorded as “inhibitor”. Also, the “bound to plasma proteins” value in the data set with plasma proteins is greater than 99.9%. For the same compound, the “substrate of CYP3A” value in the data set on CYP3A [14] was “substrate”. Further, the “mean terminal elimination half-life” value in data set [15] (HCV-infected subjects (n = 6)) is listed as “approximately 41 h”. The “increase in AUC with food” value in data set [15] (high-fat/high-caloric breakfast) is given as 61%. The “AUC in subjects infected with HCV relative to uninfected subjects” value in data set [15] (human, in vivo) was 2–3 times. Also, in data set [15] (non-HCV-infected subjects vs matched healthy controls), the “increase in exposure in moderate hepatic impairment” value is listed as “approximately 2 fold”. Moreover, in data set [15] (non-HCV-infected subjects), the “increase in exposure in severe compared with moderate hepatic impairment” value is recorded as “approximately 2 fold”. Also, the “increase in AUC with food” value in data set [15] (normal-caloric breakfast) is listed as 69%. Besides, the “time to steady state” value in [15] (once-daily dosing) is on record as 7 days. Moreover, the “time of maximum plasma concentration (Cmax) postdose” value in [15] (oral) was 4 to 6 h. In addition, the “dose proportionality of Cmax and AUC” value in data set [15] (repeated doses between 75 mg and 200 mg daily) is “more than dose proportionally”. Moreover, the “mean terminal elimination half-life” value in data set [15] (subjects without HCV infection) was 10 to 13 h. Moreover, in data set [15] (setting [23]), the “increase in AUC24h in severe renal impairment” value is 62% and the “increase in Cmax in severe renal impairment” value was 34%. The “inhibition of BCRP” value in the data set with BCRP is “inhibitor”. For the same compound, the “substrate of MRP2” value with MRP2 [16] is given as “substrate”.
Take `CC(C)OC(=O)[C@H](C)N[P@](=O)(OC[C@H]1O[C@@H](n2ccc(=O)[nH]c2=O)[C@](C)(F)[C@@H]1O)Oc1ccccc1` [sofosbuvir]: in data set [17], the “conversion to metabolite GS-331007” value is on record as greater than 90%.
